Test results from patent US5395836A, “8-tricycloalkyl xanthine derivatives” (Kyowa Hakko Kogyo Co., Ltd., priority 1993, dated 1995).
pKi: −log10 of the molar value.

Experiments:
Diuretic Effect = type: in vivo, rat (Wistar); conditions: po, 4 hours; for Increase in amount of K+ excreted Δ(%) / Increase in amount of Na+ excreted Δ(%) / Increase in amount of urine Δ(%): control 0; for Na+/K+: control 1.00
Protocol: The experiment was performed by using Wistar rats (male; 150 to 300 g). The rats were starved for 18 hours prior to the administration of a test compound (n=4 to 5). After test compounds were dissolved in 0.4% methanol, 1% dimethylsulfoxide and 0.01N sodium hydroxide/physiological saline, and administered intravenously, the physiological saline (25 ml/kg) was orally administered. Alternatively, test compounds dissolved in the physiological saline (25 ml/kg) was orally administered to the rats. Urine was collected from the rats during 4 hours after the oral administration, and urine volume was measured by a graduated measuring cylinder, and the electrolytes in the urine (Na^+ and K^+) were determined by flame photometer (775 A manufactured by Hitachi, Ltd.).

adenosine A1 receptor = target: T1, adenosine A1 receptor (Rattus norvegicus, UniProt P25099); assay: Adenosine Receptor Antagonizing Activity (Adenosine A1 Receptor Binding Test); conditions: rat corpus striatum; 3H-CHA 1.1 nM; 25° C., 90 min; Cheng-Prusoff
T1 construct: from tissue; host or cells: rat corpus striatum, washed membrane suspension
T1 sequence (P25099 1-326): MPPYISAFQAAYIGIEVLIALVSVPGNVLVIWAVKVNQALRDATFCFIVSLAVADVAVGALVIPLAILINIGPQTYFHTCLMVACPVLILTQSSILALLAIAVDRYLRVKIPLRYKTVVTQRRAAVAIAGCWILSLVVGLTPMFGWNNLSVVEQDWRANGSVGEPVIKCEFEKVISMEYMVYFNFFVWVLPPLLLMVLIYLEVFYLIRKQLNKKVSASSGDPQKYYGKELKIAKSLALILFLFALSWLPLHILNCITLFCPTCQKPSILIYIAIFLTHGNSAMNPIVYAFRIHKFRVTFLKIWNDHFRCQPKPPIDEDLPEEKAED
Protocol: The test was conducted according to the method of Bruns et al. [Proc. Natl. Acad. Sci. U.S.A., 77., 5547 (1980)] with slight modification.
Corpus striatum of a rat was suspended in ice-cooled 50 mM Tris hydroxymethyl aminomethane hydrochloride (Tris HCl) buffer (pH 7.7) by using Polytron homogenizer (manufactured by Kinematicas Co.). The suspension was centrifuged (50,000×g, 10 minutes), and the precipitate was suspended again in the same amount of 50 mM Tris HCl buffer. The suspension was centrifuged under the same conditions, and the final precipitate was suspended once again in 50 mM Tris HCl buffer to give a tissue concentration of 100 mg (wet weight)/ml. The tissue suspension was allowed to stand in the presence of 0.02 unit/mg tissue of adenosine deaminase (manufacture by Sigma Co.) at 37° C. for 30 minutes. The tissue suspension was centrifuged (50,000×g, 10 minutes) and to the obtained precipitates was added 50 mM Tris HCl buffer to give a tissue concentration of 10 mg (wet weight)/ml.
To 1 ml of the tissue suspension thus prepared, were added 50 μl of cyclohexyladenosine labeled with tritium (^3 H-CHA: 27 Ci/mmol, manufactured by New England Nuclear) (final concentration: 1.1 nM), and 50 μl of a test compound. The resulting mixture was allowed to stand at 25° C. for 90 minutes and then rapidly filtered by suction through a glass fiber filter (GF/C, manufactured by Whatman Co.). The filter was immediately washed three times with 5 ml each of ice-cooled 50 mM Tris HCl buffer, and transferred to a vial, and scintillator (EX-H by Wako Pure Chemical Industries, Ltd.) was added thereto. The radioactivity on the filter was determined with a liquid scintillation counter (manufactured by Packard Instrument Co.).
The inhibition rate (Ki value) of the test compound against the binding of A1 receptors (^3 H-CHA binding) was calculated by the equation of Cheng-Prusoff. [formula]

[1] = Renal-protecting Effect (Glycerol-Induced Renal Failure Model); type: in vivo, rat (Wistar); conditions: for Amount of creatinine in blood serum / Amount of uria nitrogen in blood serum: ip, 24 h after glycerol
Protocol: A renal failure is a state where the renal function is lowered and the homeostasis of a body fluid can be no longer maintained. It is known that an acute renal failure characteristic of uriniferous tubule disorder is caused by subcutaneous or intramuscular injection of glycerol to rats [Can. J. Physiol.
Male Wistar rats were kept deprived of water for 18 hours, and served for the test. A test compound was intraperitoneally administered to the rats (dosage: 0.1 ml/100 g). After 30 minutes, the rats were anesthetized with ether and 50% glycerol was subcutaneously administered (dosage: 0.8 ml/100 g) to the rats, pinching the dorsal skin. Twenty four hours after the administration of glycerol, the rats were anesthetized with ether and 5 ml of blood was collected from the abdominal aorta. The collected blood was allowed to stand for 30 minutes or longer and then centrifuged at 3,000 rpm for 10 minutes, and the amounts of the serum creatinine and the serum urine-nitrogen (UN) were determined by auto analyzer (Olympus AU510) [creatinine test (Jaffe method), UN test (enzyme method); both tests were used in Olympus AU500/550 exclusive reagent […].

[2] = 0.03 mg/kg, control 4.55 ± 0.24
[3] = 0.03 mg/kg, control 137.2 ± 5.0
[4] = 0.01 mg/kg, control 3.90 ± 0.24 (compounds 6, 7), 4.35 ± 0.23 (compound 3)
[5] = 0.01 mg/kg, control 124.9 ± 7.5 (compounds 6, 7), 139.7 ± 10.2 (compound 3)

Compound	pKi (adenosine A1 receptor)	Increase in amount of K+ excreted Δ(%) (Diuretic Effect; 0.01 mg/kg)	Increase in amount of Na+ excreted Δ(%) (Diuretic Effect; 0.01 mg/kg)	Increase in amount of urine Δ(%) (Diuretic Effect; 0.01 mg/kg)	Na+/K+ (Diuretic Effect; 0.01 mg/kg)	Increase in amount of K+ excreted Δ(%) (Diuretic Effect; 1.6 mg/kg)	Increase in amount of Na+ excreted Δ(%) (Diuretic Effect; 1.6 mg/kg)	Increase in amount of urine Δ(%) (Diuretic Effect; 1.6 mg/kg)	Na+/K+ (Diuretic Effect; 1.6 mg/kg)	Amount of creatinine in blood serum [1, 2] [mg/dL]	Amount of uria nitrogen in blood serum [1, 3] [mg/dL]	Increase in amount of K+ excreted Δ(%) (Diuretic Effect; 0.1 mg/kg)	Increase in amount of Na+ excreted Δ(%) (Diuretic Effect; 0.1 mg/kg)	Increase in amount of urine Δ(%) (Diuretic Effect; 0.1 mg/kg)	Na+/K+ (Diuretic Effect; 0.1 mg/kg)	also measured
CCCn1c(=O)c2[nH]c(C34CC5CC(C3)C(=O)C4C5)nc2n(CCC)c1=O (stereo not shown) [Compound 2, 8-(6-Oxo-3-tricyclo[3.3.1.0^3,7]nonyl)-1,3-dipropylxanthine]	9.23					8	188	241	2.67	2.51 ± 0.24	85.0 ± 8.7	32	177	211	2.10	
CCCn1c(=O)c2[nH]c(C34CC5CC(CC3C5)C4)nc2n(CCCO)c1=O [Compound 6, 3-(3-Hydroxypropyl)-8-(3-tricyclo[3.3.1.0^3,7]nonyl)-1-propylxanthine]	9.02											24	276	396	3.03	Increase in amount of K+ excreted Δ(%) (Diuretic Effect; 0.025 mg/kg): 5.1%; Increase in amount of Na+ excreted Δ(%) (Diuretic Effect; 0.025 mg/kg): 111%; Increase in amount of urine Δ(%) (Diuretic Effect; 0.025 mg/kg): 134%; Na+/K+ (Diuretic Effect; 0.025 mg/kg): 2.00; Amount of creatinine in blood serum [1, 4]: 2.23 ± 0.15 mg/dL; Amount of uria nitrogen in blood serum [1, 5]: 65.4 ± 5.6 mg/dL
CCCn1c(=O)c2[nH]c(C34CC5CC(CC3C5)C4)nc2n(CC(C)O)c1=O (stereo not shown) [Compound 7, 3-(2-hydroxypropyl) -8-(3tricyclo[3.3.1.0^3,7]nonyl)-1-propylxanthine]	8.21	33	97	140	1.48							23	138	200	1.93	Amount of creatinine in blood serum [1, 4]: 2.28 ± 0.22 mg/dL; Amount of uria nitrogen in blood serum [1, 5]: 70.0 ± 9.8 mg/dL
Cn1c(=O)c2[nH]cnc2n(C)c1=O [aminophylline, reference compound]																effect of suppressing the increase ([1]; i.p., 10 mg/kg): weak effect of suppressing the increase
NS(=O)(=O)c1cc(C(=O)O)c(NCc2ccco2)cc1Cl [furosemide, reference compound]																effect on serum creatinine ([1]; i.p., 10 mg/kg): tendency to increase the serum creatinine

The next lines start with results.

pKi (adenosine A1 receptor)	Compound	Increase in amount of K+ excreted Δ(%) (Diuretic Effect; 0.01 mg/kg)	Increase in amount of Na+ excreted Δ(%) (Diuretic Effect; 0.01 mg/kg)	Increase in amount of urine Δ(%) (Diuretic Effect; 0.01 mg/kg)	Na+/K+ (Diuretic Effect; 0.01 mg/kg)	Increase in amount of K+ excreted Δ(%) (Diuretic Effect; 1.6 mg/kg)	Increase in amount of Na+ excreted Δ(%) (Diuretic Effect; 1.6 mg/kg)	Increase in amount of urine Δ(%) (Diuretic Effect; 1.6 mg/kg)	Na+/K+ (Diuretic Effect; 1.6 mg/kg)	Amount of creatinine in blood serum [1, 2] [mg/dL]	Amount of uria nitrogen in blood serum [1, 3] [mg/dL]	Increase in amount of K+ excreted Δ(%) (Diuretic Effect; 0.1 mg/kg)	Increase in amount of Na+ excreted Δ(%) (Diuretic Effect; 0.1 mg/kg)	Increase in amount of urine Δ(%) (Diuretic Effect; 0.1 mg/kg)	Na+/K+ (Diuretic Effect; 0.1 mg/kg)	also measured
9.51	CCCn1c(=O)c2[nH]c(C34C[C@H]5CC3C[C@@H](C4)[C@H]5O)nc2n(CCC)c1=O (relative stereo) [Compound 4, 8-(cis-9-hydroxy-3tricyclo[3.3.1.0^3,7]nonyl)-1,3-dipropylxanthine]	43	167	200	1.86	35	180	232	2.07	2.32 ± 0.48	75.6 ± 13.9					
9.43	CCCn1c(=O)c2[nH]c(C34CC5CC3CC(C4)C5=O)nc2n(CCC)c1=O [Compound 1, 8-(9-Oxo-3-tricyclo[3.3.1.0^3,7]nonyl)-1,3-dipropylxanthine]	37	144	149	1.78	36	193	258	2.15	2.51 ± 0.41	81.4 ± 15.9					
9.62	CCCn1c(=O)c2[nH]c(C34CC5CC(C3)C(O)C4C5)nc2n(CCC)c1=O (stereo not drawn) [Compound 5, 8-(Trans-6-hydroxy-3-tricyclo[3.3.1.0^3,7]nonyl)-1,3-dipropylxanthine]															Amount of creatinine in blood serum ([1]; 0.1 mg/kg, control 4.55 ± 0.24 (compound 5), 4.35 ± 0.23 (compound 3)): 2.34 ± 0.24 mg/dL; Amount of uria nitrogen in blood serum ([1]; 0.1 mg/kg, control 137.2 ± 5.0 (compound 5), 139.7 ± 10.2 (compound 3)): 74.4 ± 7.7 mg/dL
8.29	CCCn1c(=O)c2[nH]c(C34CC5CC(CC(O)(C5)C3)C4)nc2n(CCC)c1=O [Compound 8, 8-(3-Hydroxy-1-tricyclo[3.3.1.1^3,7]decyl)-1,3-dipropylxanthine]															
